Where a name gives a salt, the structure may show the parent alone.
Experiments:
[1] = system: rats treated with Triton WR-1339; test: Hypolipemic action on the rat, Triton WR-1339 method; type: in vivo; conditions: for Percentage reduction of lipids: Cholesterol / Percentage reduction of lipids: Total Lipids / Percentage reduction of lipids: Triglycerides: Table VI, with respect to Triton WR-1339
Experimental: The above-mentioned Triton WR-1339 method was selected. The total cholesterol, triglycerides and total lipids were determined in the serum. The amount of Triton WR-1339 administered to the animals was 300 mg/kg. The amount of piperazine 2,5-dihydroxy benzene sulfonate mono-tosylate administered was 2 mMoles/Kg orally. The letter P signifies probability.
The above-mentioned Triton WR-1339 method was selected. The total cholesterol, triglycerides and total lipids were determined in the serum. The results obtained are given in Table V. The amount of Triton WR-1339 administered to the animals was 300 mg/Kg. The amount of the piperazine salt with one mole of the di-0-(p-chloro phenoxy isobutyrate) of 2,5-dihydroxy benzene sulfonic acid administered was 1 mMol/Kg orally. The letter P signifies probability.
In this Triton WR-1339 method, all the compounds are administered at a dose of 2 mMoles/Kg orally excepted those compounds in which is the residue of p-chlorophenoxy isobutyric acid, which are administered orally at a dose corresponding to 2 mMoles of R per Kg, i.e. the amount used is calculated on the basis of the residue R only.

[2] = Acute toxicity (LD50), mouse, oral, method of Reed and Muench; type: in vivo, mouse (albino); conditions: mouse, in vivo, po
Experimental: (§1) The acute toxicities for the mouse are also very low. The medium lethal dose (LD50) for the mouse was determined according to the modified method of Reed and Muench (Reed L. J. & Muench H., Am. J. Hyg., 27, 493, 1938).
(§2) 1. ACUTE TOXICITY IN THE MOUSE AND RAT
(§3) 18 to 25 gr albino mouse.
(§4) The LD50 was determined according to the method of Reed and Muench. […]

mouse = test: as above; type: in vivo, mouse (albino); conditions: Table VI; species and route not printed in table (mouse per b12)
Experimental: as §1, §2, §3, §4

[3] = Acute toxicity (LD50), rat, oral, method of Reed and Muench; set-up: species or system rat (Sprague-Dawley); conditions: in vivo
Experimental: as §2
100 to 150 gr. Sprague-Dawley rats.
The LD50 was determined according to the method of Reed and Muench.

white Leghorn chickens = test: Hypolipemic action on the chicken; type: in vivo, chicken (white Leghorn)
Experimental: as §1
This study was performed with white Leghorn chickens, according to the above-mentioned method. The total cholesterol and the total lipids are determined in the plasma.

[4] = Table VI, species and route not printed in table (mouse per b12), read-out: LD50 (medium lethal dose)
[5] = orally, 2 mMoles of R (p-chlorophenoxy isobutyric acid residue) per Kg
[6] = Triton 300 mg/kg + compound 2 mMoles/Kg orally, P<0,0005

Cc1ccc(S(=O)(=O)Oc2ccc(OS(=O)(=O)c3ccc(C)cc3)c(S(=O)(=O)O)c2)cc1 [pyridine 2,5-dihydroxy benzene sulfonate ditosylate]
Percentage reduction of lipids: Cholesterol ([1]; 2 mMoles/Kg orally): 17% | Percentage reduction of lipids: Total Lipids ([1]; 2 mMoles/Kg orally): 31% | Percentage reduction of lipids: Triglycerides ([1]; 2 mMoles/Kg orally): 44% | LD50 [2, 4]: 700 mg/kg

Cc1ccc(S(=O)(=O)Oc2ccc(O)c(S(=O)(=O)O)c2)cc1 [diethylamine-2,5-dihydroxybenzenesulfonate monotosylate] [diethylamine 2,5-dihydroxy benzene sulfonate mono-tosylate]
Percentage reduction of lipids: Cholesterol ([1]; 2 mMoles/Kg orally): 23% | Percentage reduction of lipids: Total Lipids ([1]; 2 mMoles/Kg orally): 31% | Percentage reduction of lipids: Triglycerides ([1]; 2 mMoles/Kg orally): 32% | LD50 (medium lethal dose) (mouse): 6.588 mg/kg

Cc1ccc(S(=O)(=O)Oc2ccc(O)c(S(=O)(=O)O)c2)cc1 [pyridine 2,5-dihydroxybenzenesulfonate monotosylate] [pyridine 2,5-dihydroxy benzene sulfonate mono-tosy-late]
Percentage reduction of lipids: Cholesterol ([1]; 2 mMoles/Kg orally): 18% | Percentage reduction of lipids: Total Lipids ([1]; 2 mMoles/Kg orally): 27% | Percentage reduction of lipids: Triglycerides ([1]; 2 mMoles/Kg orally): 36% | LD50 (medium lethal dose) (mouse): 680 mg/kg

Cc1ccc(S(=O)(=O)Oc2ccc(O)c(S(=O)(=O)O)c2)cc1 [morpholine 2,5-dihydroxybenzenesulfonate monotosylate] [morpholine 2.5-dihydroxybenzenesulphonate monotosylate]
Percentage reduction of lipids: Cholesterol ([1]; 2 mMoles/Kg orally): 12% | Percentage reduction of lipids: Total Lipids ([1]; 2 mMoles/Kg orally): 31% | Percentage reduction of lipids: Triglycerides ([1]; 2 mMoles/Kg orally): 23% | LD50 (medium lethal dose) (mouse): 5.301 mg/kg

CC(C)(Oc1ccc(Cl)cc1)C(=O)Oc1ccc(OC(=O)C(C)(C)Oc2ccc(Cl)cc2)c(S(=O)(=O)O)c1 [magnesium salt of di-O-(p-chloro phenoxy isobutyrate) of 2,5] [magnesium salt of di-O-(p-chlorophenoxy isobutyrate) of 2,5-dihydroxy benzene sulfonic acid]
Percentage reduction of lipids: Cholesterol [1, 5]: 5% | Percentage reduction of lipids: Total Lipids [1, 5]: 25% | Percentage reduction of lipids: Triglycerides [1, 5]: 51% | LD50 (medium lethal dose) (mouse): 4.780 mg/kg

CC(C)(Oc1ccc(Cl)cc1)C(=O)Oc1ccc(OC(=O)C(C)(C)Oc2ccc(Cl)cc2)c(S(=O)(=O)O)c1 [piperazine mono-salt of di-O-(p-chlorophenoxy isobutyrate) of 2,5-dihydroxy benzene sulfonic acid]
LD50 ([3]; rat female): 11700 mg/kg | LD50 ([3]; rat male): 11000 mg/kg | LD50 [2, 4]: 11000 mg/kg | LD50 ([2]; mouse female, read-out: LD50): 8700 mg/kg | LD50 ([2]; mouse male, read-out: LD50): 11000 mg/kg

Cc1ccc(S(=O)(=O)Oc2ccc(O)c(S(=O)(=O)O)c2)cc1 [piperazine 2.5-dihydroxybenzenesulphonate monotosylate]
LD50 ([3]; rat female): 11900 mg/kg | LD50 ([3]; rat male): > 11900 mg/kg | LD50 ([2]; mouse female, read-out: LD50): > 10800 mg/kg | LD50 ([2]; mouse male, read-out: LD50): > 10800 mg/kg

Cc1ccc(S(=O)(=O)Oc2ccc(O)c(S(=O)(=O)O)c2)cc1 [piperazine 2,5-dihydroxybenzenesulfonate monotosylate] [piperazine 2.5-dihydroxybenzenesulphonate monotosylate]
Percentage reduction of lipids: Cholesterol ([1]; 2 mMoles/Kg orally): 18% | Percentage reduction of lipids: Total Lipids ([1]; 2 mMoles/Kg orally): 42% | Percentage reduction of lipids: Triglycerides ([1]; 2 mMoles/Kg orally): 43% | total cholesterol ([1]; Triton 300 mg/kg + compound 2 mMoles/Kg orally, 0,0005<P<0,0025): 232,3 mg % ml of plasma | total lipids [1, 6]: 1211,4 mg % ml of plasma | triglycerides [1, 6]: 639,8 mg % ml of plasma | total lipids, b/a . 100 (Y) (white Leghorn chickens; final relative to initial value, check sample X = 1075): 726 | total cholesterol, b/a . 100 (Y) (white Leghorn chickens; final relative to initial value, check sample X = 1514): 1017 | total cholesterol, final value (b) (white Leghorn chickens; final value): 947,2 mg % ml of plasma | total lipids, final value (b) (white Leghorn chickens; final value): 2360,8 mg % ml of plasma | total cholesterol, initial value (a) (white Leghorn chickens; initial value): 93,1 mg % ml of plasma | total lipids, initial value (a) (white Leghorn chickens; initial value): 325,2 mg % ml of plasma

CC(C)(Oc1ccc(Cl)cc1)C(=O)Oc1ccc(O)cc1S(=O)(=O)O [calcium 2-O-(p-chlorophenoxyisobutyryl) 2,5-dihydroxy benzene sulfonate]
Percentage reduction of lipids: Cholesterol [1, 5]: 30% | Percentage reduction of lipids: Total Lipids [1, 5]: 26% | Percentage reduction of lipids: Triglycerides [1, 5]: 32% | LD50 [2, 4]: 3.35 mg/kg
